Laboratory results: ChEMBL document CHEMBL1123766, “2-Amino- and 2-guanidino-1,2,3,4-tetrahydro-1,4-epoxynaphthalenes as conformationally defined analogues of alpha-adrenergic agents” (J Med Chem, 1987)

Experiments:
[1] = target: T1, Adrenergic receptor alpha-2 (Rattus norvegicus) (UniProt P22086+P19328+P22909); experiment: Evaluated for alpha-2 adrenergic receptor activity in the field stimulated rat vas deferens preparation; assay type: tissue-based
[2] = target: T1, Adrenergic receptor alpha-2 (Rattus norvegicus); experiment: Approximate efficacy based on maximal effect produced by […] was determined against the alpha-2 adrenergic receptor; assay type: protein assay
[3] = target: T1, Adrenergic receptor alpha-2 (Rattus norvegicus); experiment: Evaluated for alpha-2 adrenergic receptor activity in the field stimulated rat vas deferens preparation.*-confirmed by pretreatment with reserpine (3 mg/kg) 16 hr prior to sacrifice. Stimulatory effects blocked by prazosin (78 nM).
[4] = target: T1, Adrenergic receptor alpha-2 (Rattus norvegicus); experiment: Evaluated for alpha-2 adrenergic receptor activity in the field stimulated rat vas deferens preparation.* Confirmed by pretreatment with reserpine (3 mg/kg) 16 hr prior to sacrifice. Stimulatory effects blocked by prazosin (78 nM). Value estimated in the presen
[5] = target: T1, Adrenergic receptor alpha-2 (Rattus norvegicus); experiment: Evaluated for alpha-2 adrenergic receptor activity in the field stimulated rat vas deferens preparation.; assay type: tissue-based
[6] = target: T1, Adrenergic receptor alpha-2 (Rattus norvegicus); experiment: Evaluated for alpha-2 adrenergic receptor activity in the field stimulated rat vas deferens preparation.* Stimulatory effects blocked by prazosin (78 nM).; assay type: tissue-based

| SMILES | pD2 [1] | Efficacy [2] | other results |
| --- | --- | --- | --- |
| N[C@@H]1CC2OC1c1ccccc12 (some centres undefined) | < 3 |  |  |
| COc1ccc(OC)c(C(O)C(C)N)c1 (centres undefined) | 6.48 | 1 |  |
| COc1ccc(OC)c2c1C1C[C@H](N)C2O1 (some centres undefined) |  | 0.9 | pD2 [3]: 5.08 |
| N[C@H]1CC2OC1c1ccccc12 (some centres undefined) |  |  | pD2 [4]: 4.9 |
| COc1ccc(OC)c2c1C1C[C@@H](N)C2O1 (some centres undefined) |  |  | pD2 [5]: 3.49 |
| COc1ccc(OC)c2c1C1CC(N=C(N)N)C2O1 (centres undefined) |  | 0.7 | pD2 [6]: 4.75 |
